Experiments:
[1] = In vitro DPPH free radical scavenging antioxidant potency; details: Tris-HCl buffer pH 7.4, 45 minutes in dark, absorbency at 517 nm, references probucol and α-tocopherol
Procedure: In vitro evaluation of free radical scavenging antioxidant potency:
Antioxidant activity of the compounds ((−)-Matairesinol and (−)-wikstromol) were tested for their capacity/potency to scavenger most widely used free radical 2,2-diphenyl-1-[…] radical (DPPH). The well-accepted and tested probucol and α-tocopherol were taken as reference compounds. 1 mg/ml DMSO concentration of the compounds [(−)-Matairesinol and (−)-wikstromol] were prepared and subsequently, serially diluted to lower concentrations with DMSO […] of test compounds were reconstituted to 1 ml in Tris-HCl buffer (pH 7.4) equal volume of 500 μm of DPPH radical dissolved in ethanol was reacted with this. After incubation for 45 minutes in dark, the absorbency at 517 nm was recorded. Radical with no compound was taken as control for calculation of % radical scavenging activity. All the readings were recorded in triplicate.

[2] = Effectiveness on administration at 250 mg/kg of body weight; format: in vivo; details: dosage of 250 mg/kg of body weight
CAMP phosphodiesterase = details: cited from earlier work
[3] = target: T1, human sex hormone-binding globulin (SHBG) (Homo sapiens, UniProt P04278); details: cited from earlier work
T1 sequence (P04278 30-402): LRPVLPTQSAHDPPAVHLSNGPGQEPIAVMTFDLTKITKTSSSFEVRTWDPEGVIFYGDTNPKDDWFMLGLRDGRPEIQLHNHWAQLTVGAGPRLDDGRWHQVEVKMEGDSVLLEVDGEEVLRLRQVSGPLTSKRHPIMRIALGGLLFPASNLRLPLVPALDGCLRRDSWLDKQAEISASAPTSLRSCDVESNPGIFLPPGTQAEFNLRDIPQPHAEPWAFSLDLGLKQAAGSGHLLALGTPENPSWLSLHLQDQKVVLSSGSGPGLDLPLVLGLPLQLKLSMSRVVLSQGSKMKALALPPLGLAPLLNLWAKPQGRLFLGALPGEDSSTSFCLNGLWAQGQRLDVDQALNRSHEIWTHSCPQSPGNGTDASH

[4] = test system: p-388 lymphocyte leukemia; details: cited from earlier work
HIV = details: cited from earlier work

For `COc1cc(C[C@H]2COC(=O)[C@@H]2Cc2ccc(O)c(OC)c2)ccc1O` [(−)-Matairesinol, 4,4^1-dihydroxy-3, 3^1-dimethoxylignan-9, 9^1-olide], which “antioxidant/radical scavenging potency compared with reference standards” value [1] is on record?
The value was “more potent antioxidant/radical scavenging potency than reference standards”.

What about the effectiveness when administered [2] of the same compound?
Its effectiveness when administered is “highly effective”.

What about the “CAMP phosphodiesterase inhibition activity” value (CAMP phosphodiesterase) of the same compound?
The value was “exhibits CAMP phosphodiesterase inhibition activity”.

What about the “binding of H-labeled 5α-dihydrotestosterone (DHT) to human SHBG” value [3] of the same compound?
The value was “reduce the binding”.

Which results are given for `COc1cc(C[C@@H]2COC(=O)[C@@]2(O)Cc2ccc(O)c(OC)c2)ccc1O` [(−)-wikstromol, 4,4^1,8-trihydroxy-3, 3^1-dimethoxyliganan-9, 9^1-olide]?
antioxidant/radical scavenging potency compared with reference standards [1]: more potent antioxidant/radical scavenging potency than reference standards; effectiveness when administered [2]: highly effective; activity against p-388 lymphocyte leukemia [4]: active against p-388 lymphocyte leukemia; anti-HIV activity (HIV): anti-HIV activity
